pIC50: −log10 of the molar value. Where two headings read alike, the source gives them in different places.

The pIC50 is the negative decadic logarithm of the IC50, by convention in mol/L.

For one series, the system named is Jurkat Cells. The experiment in a line: Cell Growth Inhibition, Jurkat cells (trypan blue exclusion). Type of series: cell-based. Particulars: for pIC50: Homo sapiens, Jurkat, 48 h after treatment, 50% of vehicle-treated cell growth. The procedure:
(§1) HeLa (ATCC: CCL-2), A549-human lung carcinoma (ATCC: CCL-185), Lewis lung carcinoma (LLC) (ATCC: CRL-1642), and melanoma cells (ATCC: CRL-11147) were cultured in DMEM (Hyclone) supplemented with 10% fetal bovine serum (Hyclone) and 50 μg/mL gentamicin sulfate (Invitrogen). Jurkat leukemia cells were cultured in RPMI (Hyclone) supplemented with 10% fetal bovine serum and 50 μg/mL gentamicin sulfate. Human mammary epithelial cells were grown in mammary epithelial basal medium (Lonza) supplemented according to manufacturer's protocol. All cell lines were maintained at 5% CO2 at 37° C.
(§2) All cell lines were plated at 1×10^5/mL in the appropriate medium. For suspension cells, the tested compound was added immediately to the medium, whereas the tested compound treatment was initiated the following day for adherent cell lines. For overexpression studies, HeLa cells were transiently transfected with empty vector or vector containing wild type choline kinase twenty-four hours prior to addition of increasing concentrations of CK37. Cells were then collected 48 h after treatment, and cell number and viability were determined by trypan blue exclusion. IC50s were calculated at the tested compound concentration needed for 50% of vehicle-treated cell growth (see Table 4). The data represented are the mean±STD from triplicate measurements from three independent experiments.

Series [1] has as its system HeLa Cells. The experiment in a line: Cell Growth Inhibition, HeLa cells (trypan blue exclusion). Type of series: cell-based. Particulars: for pIC50: Homo sapiens, HeLa, 48 h after treatment, 50% of vehicle-treated cell growth. The procedure: as §1, §2
The target of another series is choline kinase. The conditions noted are these: reported; cited from earlier work.
In series [2] the test system is HT-29 human adenocarcinoma cells. Particulars: reported; cited from earlier work.
The test system of series [3] is HeLa cell endogenous choline kinase. Particulars: reported; cited from earlier work.
For series [4] the following is noted: reported; cited from earlier work.
The subject of series [5] is choline kinase (HeLa lysates). The series can be described thus: Choline kinase activity assay of HeLa cell lysates. The series is classed as biochemical. Particulars: HeLa cell lysate; FIG. 7. As to the method: Choline kinase activity was assayed as described previously in Hernandez-Alcoceba et al. “Choline kinase inhibitors as a novel approach for antiproliferative drug design,” Oncogene 1997, 15:2289-2301, the disclosure of which is incorporated herein by this reference. For HeLa cell lysate, equal volume of lysate was incubated in the presence or absence of the tested compound in kinase assay buffer (100 mM Tris-HCl, 100 mM MgCl2, 10 mM ATP, 200 μM choline, and 2 μM methyl[^14C]-choline chloride (50-60 μCi, mmol). Reactions were carried out at 37° C. for one hour and immediately stopped by addition of TCA (Trichloroacetic Acid) to a final concentration of 16%. The TCA soluble fraction was then washed 3× with four volumes of water saturated ethyl ether, and dried under vacuum. Metabolites were separated by thin layer chromatography using 60 Å silica gel plates and a liquid phase consisting of 0.9% NaCl:methanol:ammonium hydroxide (50:70:5; V:V:V). Radioactive images were resolved by PhosphorImager screening and densitometry was performed using Image Quant software.

The next series concerns Lewis Lung Carcinoma. The experiment in a line: Mouse tumors: Lewis lung carcinoma in C57B1/6 mice. The series is classed as in vivo. Particulars: 0.08 mg/g i.p. daily for nine days. The procedure: Exponentially growing Lewis lung carcinoma cells were collected, washed twice, and resuspended in PBS (1×10^7/mL). C57B1/6 female mice (20 g) were injected s.c. with 0.1 mL of the suspension. Body weight and tumor growth were monitored daily throughout the study. Tumor masses were determined by measurement with Vernier calipers using the formula: mass (mg)=[width^2 (mm)×length (mm)]/2. Mice with established tumors (between 130 and 190 mg) were randomized into vehicle control or the tested compound treated groups. Vehicle control groups received i.p. injections of 50 μL DMSO, whereas treated groups received 0.08 mg/g the tested compound in 50 μL DMSO at the indicated time points. All protocols were approved by the University of Louisville Institutional Animal Care and Use Committee.

In series [6] the test system is MDA-MB-231 mammary carcinoma cells. The experiment in a line: Cell Growth Inhibition, MDA-MB-231 cells. Type of series: cell-based. The conditions noted are these: FIG. 3B. As to the method:
as §2

In series [7] the test system is endogenous choline kinase (HeLa cells). The series can be described thus: Choline kinase activity in whole HeLa cells (radiolabeled choline). The series is classed as cell-based. The procedure: For HeLa cell labeling, cells were seeded at 1×10^5 cells/mL and incubated with increasing concentrations of the tested compound for 48 hours. Methyl[^14C]-choline chloride was added 24 hours before cell harvest, and cells were extracted and analyzed as described above. Densitometry units were normalized to total protein levels for each sample.

The subject of series [8] is various neoplastic cell lines from both solid and hematologic origins. The experiment in a line: Cell Growth Inhibition, various neoplastic cell lines. Type of series: cell-based. The conditions noted are these: all tumor cell lines investigated; FIG. 3A; read-out: IC50 values of cell growth suppression. The procedure: as §1, §2
The nature of series [9]: Tolerability of intraperitoneal CK37 in C57B1/6 mice. The series is classed as in vivo. The procedure:
In order to investigate some possible non-toxic doses of CK37 for use in vivo, we intraperitoneally injected C57B1/6 mice with 0.06, 0.07, and 0.08 mg/g of CK37. […] C57B1/6 mice bearing Lewis Lung Carcinoma xenografts (mean baseline mass=143±14 mg) were given intraperitoneal injections of 0.08 mg/g CK37 daily for nine days. As shown in FIG. 5A-B, CK37 administration suppressed tumor growth by 48% compared to the vehicle control group.

Series [10] deals with primary mammary epithelial cells (HMEC). The experiment in a line: Cell Growth Inhibition, primary mammary epithelial cells. Type of series: cell-based, human. Particulars: FIG. 3B. The procedure: as §1, §2
For series [11], the system named is HeLa Cells. The series can be described thus: Soft agar colony formation. Type of series: cell-based. The conditions noted are these: 5 μM CK37; 14 days; Control: 2506±158. As to the method:
HeLa cells were plated at a density of 25×10^3 cells per 60-mm plate with 3 mL bottom agar (0.6%) and 2 mL top agar (0.3%) in normal growth medium. Cells were fed every three days by addition of a new layer of top agar which contained increasing concentrations of the tested compound. After 14 days of growth, colonies were counted in random from 1 cm squared sections of each plate.

Take `COc1cc(C(C)=O)ccc1OCC(=O)NCc1ccc(C)cc1` [J]: the pIC50 with Jurkat Cells is under 5.00; in the series on HeLa Cells [1], under 4.60.
The like results for `CCC1(c2ccccc2)NC(=O)N(CC(=O)c2ccc(OC)cc2OC)C1=O` (stereo not shown) [A] were, in that order, under 5.00 and under 4.60.
On to `CN(C)c1cc[n+](Cc2ccc(CCCCc3ccc(C[n+]4ccc(N(C)C)cc4)cc3)cc2)cc1.[Br-].[Br-]` [MN58B], for which the pIC50 at choline kinase is 5.38; in series [2], 6.30. In series [3], the “inhibition in HeLa cell endogenous choline kinase” value is reported as 75%. In [4], the dose limiting toxicity is 5 to 10 mg/kg.
Turning to `COc1ccc(OCC(=O)OC(C)C(=O)Nc2cccc3ccccc23)cc1` (stereo not shown) [CP6], in the series on Jurkat Cells (FIG. 9), the Jurkat cell proliferation entry is recorded as “selectively suppresses Jurkat cell proliferation”. Also, the pIC50 was 5.01 in the series on Jurkat Cells and 4.90 in the series on HeLa Cells [1]. Moreover, the HeLa cell proliferation result with HeLa Cells [1] (FIG. 8) was “selectively suppresses HeLa cell proliferation”. Also, the “endogenous choline kinase activity” value in series [5] was “dose-dependent decrease in endogenous choline kinase activity”.
With `CSc1ccc(C=CC(=O)OCC(=O)NC(Cc2ccccc2)C(C)=O)cc1` (stereo not shown) [C], the pIC50 is under 5.00 in the series on Jurkat Cells and 4.82 with HeLa Cells [1].
The like results for `CCc1ccc(C(=O)CN2C(=O)NC(CC)(c3ccccc3)C2=O)cc1` (stereo not shown) [E] were, in that order, under 5.00 and under 4.60.
The like results for `CCCNC(=O)COC(=O)CN1C(=O)N[C@@](C)(c2ccc(C)cc2)C1=O` [H] were, in that order, under 5.00 and under 4.60.
The like results for `C=CCn1c(COc2cccc(C)c2)nnc1SCc1ncc(-c2ccccc2)o1` [O] were, in that order, under 5.00 and under 4.60.
For `COc1ccccc1CNC(=O)CN1C(=O)NC(C)(c2ccc(C)cc2)C1=O` (stereo not shown) [K], the pIC50 in the series with Jurkat Cells is under 5.00; with HeLa Cells [1] it was under 4.60.
Turning to `CCC(=O)c1ccc(OCC(=O)OCc2csc(-c3ccc(OC)cc3)n2)cc1` [I], the results for the pIC50 with Jurkat Cells and in the series on HeLa Cells [1] were under 5.00 and under 4.60, respectively.
For the compound `C[C@@]1(c2ccc3ccccc3c2)NC(=O)N(CC(=O)OCC(=O)NCCC#N)C1=O` [B], the figures for the pIC50 in the series with Jurkat Cells and with HeLa Cells [1] were under 5.00 and under 4.60, respectively.
Consider `CCc1ccc(-c2nnc(SCC(=O)Nc3cc(C)cc(C)c3)[nH]2)cc1` [CK37, N-(3,5-dimethylphenyl)-2-[[5-(4-ethylphenyl)-1H-1,2,4-triazol-3-yl]sulfanyl]acetamide], for which, in the series on Lewis Lung Carcinoma, the “tumor growth suppression compared to the vehicle control group” value was 48%. Further, in the series on Lewis Lung Carcinoma (Vehicle: 1109±107 mg, p<0.01), the “wet weight of resected tumors at the end of treatment” value was 648 ± 96 mg. Moreover, the “CK37 concentration compared for growth suppression” value in [6] (MDA-MB-231) is 0.5 µM; in series [10] it was 10 µM. In series [6] (MDA-MB-231 versus HMEC), the “difference in selectivity against neoplastic versus primary cell growth” value came to 20 fold. For the same compound, in series [7] (10 μM, 48 hours, FIG. 2B), the “inhibition of endogenous choline kinase activity in whole cells” value is recorded as 61.7%±9.7%. Also, the “decrease in HeLa cell endogenous choline kinase” value in series [7] (about the same concentration as MN58B, somewhat different conditions) turned out to be 60%. Further, the pIC50 is 5.27 with Jurkat Cells, 5.00 to 5.30 in series [8] and 5.38 in the series with HeLa Cells [1]. Besides, the “clinical signs or symptoms of distress” value in series [9] (0.06, 0.07, and 0.08 mg/g intraperitoneally) is reported as “no clinical signs or symptoms of distress”. Besides, the dose limiting toxicity in series [9] (mice) is over 80 mg/kg. Besides, the “number of soft agar colonies” value in the series with HeLa Cells [11] worked out at 360±77.
With `COCCNC(=O)CN1C(=O)NC(C)(c2ccc(C)cc2)C1=O` (stereo not shown) [M], the pIC50 with Jurkat Cells was under 5.00; in the series with HeLa Cells [1], under 4.60.
With `CC(OC(=O)CCC(=O)c1cccs1)C(=O)Nc1cccc2ccccc12` (stereo not shown) [G], the pIC50 was under 5.00 in the series on Jurkat Cells and under 4.60 in the series on HeLa Cells [1].
The like results for `COc1ccccc1COC(=O)CN1C(=O)N[C@@](C)(c2ccc(C)cc2)C1=O` [P] were, in that order, under 5.00 and 4.74.

The values above are taken from patent US9381172B2, “Small molecule choline kinase inhibitors, screening assays, and methods for treatment of neoplastic disorders” (UNIVERSITY OF LOUISVILLE RESEARCH FOUNDATION, INC., priority 2009, dated 2016).
